Measurements: patent US20050164951A1, “Inhibitors for the soluble epoxide hydrolase” (The Regents of the University of California, priority 2003, published 2005)
Read-outs that look alike come from different tables or passages of the source.

Key:
[1] = biological target: T1, human sEH (Homo sapiens, UniProt P34913); assay: Inhibition of recombinant human sEH, IC50 assay with 4-nitrophenyl-trans-2,3-epoxy-3-phenylpropyl carbonate as substrate; assay type: biochemical; conditions: for IC90: 0.24 μM enzyme
T1 construct: made in house; host or cells: baculovirus expression system
T1 sequence (P34913 1-555): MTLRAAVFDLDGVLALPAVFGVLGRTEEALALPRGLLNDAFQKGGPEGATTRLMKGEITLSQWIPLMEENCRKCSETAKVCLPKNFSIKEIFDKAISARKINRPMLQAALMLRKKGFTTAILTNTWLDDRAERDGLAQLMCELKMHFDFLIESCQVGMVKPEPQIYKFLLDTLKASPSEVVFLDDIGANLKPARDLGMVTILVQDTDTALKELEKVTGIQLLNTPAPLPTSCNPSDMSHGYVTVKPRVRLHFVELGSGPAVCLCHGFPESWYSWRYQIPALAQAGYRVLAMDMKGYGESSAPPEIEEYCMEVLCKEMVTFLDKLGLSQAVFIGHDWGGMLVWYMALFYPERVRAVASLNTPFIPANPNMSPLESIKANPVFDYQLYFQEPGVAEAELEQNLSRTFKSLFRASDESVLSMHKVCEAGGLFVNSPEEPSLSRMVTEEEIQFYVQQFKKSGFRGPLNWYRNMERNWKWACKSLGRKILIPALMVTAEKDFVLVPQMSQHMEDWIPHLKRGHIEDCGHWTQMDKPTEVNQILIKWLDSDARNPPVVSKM
Protocol: (§1) Assays were performed in triplicate. […] The curve was generated from at least three separate runs, each in triplicate, to obtain the standard deviation (SD) given in Table 1 thru Table 4.

[2] = biological target: T2, mouse sEH (Mus musculus, UniProt P34914); assay: Inhibition of recombinant mouse sEH, IC50 assay with 4-nitrophenyl-trans-2,3-epoxy-3-phenylpropyl carbonate as substrate; assay type: biochemical; conditions: for IC90: 0.12 μM enzyme
T2 construct: made in house; host or cells: baculovirus expression system
T2 sequence (P34914 1-554): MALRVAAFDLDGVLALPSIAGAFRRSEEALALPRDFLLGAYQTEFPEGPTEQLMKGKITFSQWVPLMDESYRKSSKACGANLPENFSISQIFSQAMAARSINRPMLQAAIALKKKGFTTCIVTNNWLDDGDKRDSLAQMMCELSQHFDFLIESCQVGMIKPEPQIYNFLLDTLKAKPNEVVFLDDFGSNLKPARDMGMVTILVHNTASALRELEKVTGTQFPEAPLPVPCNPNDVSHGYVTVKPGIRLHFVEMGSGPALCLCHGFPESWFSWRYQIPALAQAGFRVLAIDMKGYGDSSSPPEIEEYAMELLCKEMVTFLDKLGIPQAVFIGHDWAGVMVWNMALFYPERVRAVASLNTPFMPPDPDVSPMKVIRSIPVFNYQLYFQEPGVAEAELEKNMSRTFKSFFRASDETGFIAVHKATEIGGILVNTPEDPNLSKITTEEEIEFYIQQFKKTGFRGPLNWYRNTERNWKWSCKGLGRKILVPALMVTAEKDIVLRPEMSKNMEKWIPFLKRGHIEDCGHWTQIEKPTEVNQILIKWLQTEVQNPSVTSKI
Protocol: as §1

[3] = Blood concentration after oral administration of 950 and AUDA-nBE, human pharmacokinetic profile; assay type: in vivo; conditions: FIG. 27; after oral 950
Protocol: FIG. 16 provides a sample preparation procedure for a pharmacokinetic study. A 5 μl whole blood sample was drawn into a capillary at a specific time point, each sample was extracted and anaylzed by LC/MS-MS. […] AUDA is the active metabolite of AUDA-nBE. […] 0.05 mg/kg. (B). 0.1 mg/kg. […] The compounds were administered at the same time in the same formulation. […] 21 mg (0.3 mg/kg) 950 and AUDA-nBE were orally administrated with starch. (B). 7 mg (0.1 mg/kg) formulated 950 and AUDA-NBE were taken with (HPMC, starch and lactose). (C). […] 950 with HPMC and Starch. (B). 950 in lactose and HPMC. […] HPMC forms a gel which slowly erodes; lactose enhances erosion at it moves through the gut and starch retards it. These formulations are combined, ball milled, and then placed in ‘0’ capsule and not compressed.

[4] = Table 9, established protocols, read-out: IC50 (μM) Mouse sEH
[5] = Tables 17a and b, read-out: IC50 (μM) Human sEH
[6] = Tables 17a and b, read-out: IC50 (μM) Mouse sEH
[7] = Table 8, established protocols, read-out: IC50 (μM) Human sEH
[8] = Table 8, established protocols, read-out: IC50 (μM) Mouse sEH
[9] = Table 9, established protocols, read-out: IC50 (μM) Human sEH
[10] = Table 5, 5 min preincubation, pH 7.4, 30° C., means ± SD
[11] = Table 5, […] enzyme, 5 min preincubation, pH 7.4, 30° C., means ± SD, read-out: Human sEH IC50
[12] = Table 5, […] enzyme, 5 min preincubation, pH 7.4, 30° C., means ± SD, read-out: Mouse sEH IC50
[13] = Table 7, established protocols, read-out: IC50 (μM) Human sEH
[14] = Table 7, established protocols, read-out: IC50 (μM) Mouse sEH

## CCCCC(CC)OC(=O)C1CCCC(NC(=O)NC23CC4CC(CC(C4)C2)C3)C1 (centres unmarked) [Compound 904]
[1]; read-out: IC50 (μM) Human sEH
  IC50: 0.1 ± 0.01 µM
[2]; [4]
  IC50: 0.05 ± 0.01 µM

## CCCCCNC(=O)NC(CO)c1ccccc1 (centres unmarked) [Compound 995]
[1]; [5]
  IC50: 22.1 ± 0.01 µM
[2]; [6]
  IC50: 11 ± 0.01 µM

## CCCCCOC(=O)CCCNC(=O)CC12CC3CC(CC(C3)C1)C2 [Compound 1017]
[1]; [7]
  IC50: 0.43 ± 0.02 µM
[2]; [8]
  IC50: 0.05 ± 0.01 µM

## CCOC(=O)c1ccc(COC(=O)C2CCCC(NC(=O)NC34CC5CC(CC(C5)C3)C4)C2)cc1 (centres unmarked) [Compound 942]
[1]; [5]
  IC50: 0.1 ± 0.01 µM
[2]; [6]
  IC50: 0.05 ± 0.01 µM

## CCOC(=O)CCCCCCOC1CCC(NC(=O)NC23CC4CC(CC(C4)C2)C3)CC1 (centres unmarked) [Compound 961]
[1]; [9]
  IC50: 0.1 ± 0.01 µM
[2]; [4]
  IC50: 0.05 ± 0.01 µM

## CCCCC(CC)OC(=O)CCCNC(=O)NC12CC3CC(CC(C3)C1)C2 (centres unmarked) [Compound 905]
[1]; [5]
  IC50: 0.45 ± 0.01 µM
[2]; [6]
  IC50: 0.13 ± 0.01 µM

## CCOC(=O)CCCCCCCOC(=O)CCCNC(=O)NC12CC3CC(CC(C3)C1)C2 [Compound 879]
[1]; [10]
  IC90: 720 ± 10 nM
[1]; [11]
  IC50: 0.11 ± 0.01 µM
[2]; [10]
  IC90: 160 ± 20 nM
[2]; [12]
  IC50: 0.05 ± 0.01 µM

## CS(=O)(=O)NCCCCCCCCCCCCNC(=O)NC12CC3CC(CC(C3)C1)C2 [Compound 901]
[1]; [5]
  IC50: 0.1 ± 0.01 µM
[2]; [6]
  IC50: 0.07 ± 0.01 µM

## O=C(NCCCCCOCCCCCOCC(F)(F)F)NC12CC3CC(CC(C3)C1)C2 [Compound 1004]
[1]; [13]
  IC50: 0.13 ± 0.01 µM
[1]; [5]
  IC50: 0.16 ± 0.01 µM
[2]; [14]
  IC50: 0.05 ± 0.01 µM
[2]; [6]
  IC50: 0.05 ± 0.01 µM

## C#COCCOCCCCCNC(=O)NC12CC3CC(CC(C3)C1)C2 [Compound 913]
[1]; [13]
  IC50: 0.1 ± 0.01 µM
[2]; [14]
  IC50: 0.05 ± 0.01 µM

## O=C(NCCCCCCCCCCCCN[S+]([O-])NC12CC3CC(CC(C3)C1)C2)NC12CC3CC(CC(C3)C1)C2 (centres unmarked) [Compound 902]
[1]; [5]
  IC50: 0.44 ± 0.01 µM
[2]; [6]
  IC50: 0.45 ± 0.01 µM

## CCOC(=O)CCCCCCOCCCCCNC(=O)NC12CC3CC(CC(C3)C1)C2 [Compound 1006]
[1]; [13]
  IC50: 0.11 ± 0.01 µM
[1]; [5]
  IC50: 0.11 ± 0.01 µM
[2]; [14]
  IC50: 0.05 ± 0.01 µM
[2]; [6]
  IC50: 0.05 ± 0.01 µM

## CCOC(=O)CCCCOC(=O)CCCNC(=O)NC12CC3CC(CC(C3)C1)C2 [Compound 877]
[1]; [10]
  IC90: 1500 ± 100 nM
[1]; [11]
  IC50: 0.13 ± 0.01 µM
[2]; [10]
  IC90: 100 ± 10 nM
[2]; [12]
  IC50: 0.05 ± 0.01 µM

## O=C(CCCCCCCCCCCNC(=O)NC12CC3CC(CC(C3)C1)C2)NS(=O)(=O)c1ccccc1 [Compound 914]
[1]; [5]
  IC50: 0.1 ± 0.01 µM
[2]
  IC50: 0.05 ± 0.01 µM

## CCCC(C)COCCCCCNC(=O)NC12CC3CC(CC(C3)C1)C2 (centres unmarked) [Compound 955]
[3]
  detection in blood: not detected at any time point

## CCCCC1COC(Nc2cccc(Cl)c2)=N1 (centres unmarked) [Compound 980]
[1]; [5]
  IC50: 60 ± 0.01 µM
[2]; [6]
  IC50: 49 ± 0.01 µM

## CCCCCOC(=O)CCCCC(=O)NC12CC3CC(CC(C3)C1)C2 [Compound 834]
[1]; [7]
  IC50: 2.4 ± 0.2 µM
[2]; [8]
  IC50: 0.34 ± 0.01 µM

## C=CCOC1CCC(NC(=O)NC23CC4CC(CC(C4)C2)C3)CC1 (centres unmarked) [Compound 982]
[1]; [9]
  IC50: 0.1 ± 0.01 µM
[2]; [4]
  IC50: 0.05 ± 0.01 µM

## O=C(CCCCc1ccccc1)NC1CCCCC1 [Compound 992]
[1]; [5]
  IC50: 1.6 ± 0.01 µM
[2]; [6]
  IC50: 0.05 ± 0.01 µM

## CCCCCNC(=O)C1CCCC(NC(=O)NC23CC4CC(CC(C4)C2)C3)C1 (centres unmarked) [Compound 960]
[1]; [9]
  IC50: 0.1 ± 0.01 µM
[2]; [4]
  IC50: 0.05 ± 0.01 µM
